Assays:
[1] = system: chimeric receptors mh159, mh224, mh315, mh345; test: luciferase reporter assay in HepG2 cells, chimeric receptors within the LBD; assay type: cell-based, mouse/human
mCART350M = biological target: T1, mCART350M (Mus musculus, UniProt O35627, T350M); test: luciferase reporter assay in HepG2 cells, mutant mCART350M; assay type: cell-based
T1 construct: mCAR and hCAR expression vectors were constructed by cloning an entire mCAR; expressed in transfected cells; host or cells: HepG2
T1 sequence (O35627 1-358 T350M): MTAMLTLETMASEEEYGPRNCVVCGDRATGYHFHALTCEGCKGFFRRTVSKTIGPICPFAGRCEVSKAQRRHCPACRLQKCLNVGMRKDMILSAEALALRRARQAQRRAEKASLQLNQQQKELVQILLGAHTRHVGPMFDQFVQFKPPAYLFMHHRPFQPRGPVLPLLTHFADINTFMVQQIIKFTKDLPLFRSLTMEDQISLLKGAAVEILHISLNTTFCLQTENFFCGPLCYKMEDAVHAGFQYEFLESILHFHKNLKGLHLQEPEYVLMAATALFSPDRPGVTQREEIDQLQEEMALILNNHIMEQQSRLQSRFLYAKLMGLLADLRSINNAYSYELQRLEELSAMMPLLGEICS
Procedure: The transfected cells were then treated, and luciferase assays performed as described in EXAMPLE 1.
To determine if this effect could be disrupted by mutating Thr350 to a Met, the mCART350M mutant described in EXAMPLE 2 was used. The KN-62 repression was examined with and without the co-expression of SRC-1 (EXAMPLE 3).

mCAR [2] = biological target: T2, mCAR (Mus musculus, UniProt O35627); test: cell-based transfection assay, (NR1)5-tk-luciferase reporter in HepG2 cells, wild-type mCAR; settings: for degree of repression: not affected by the mutation of Thr350
T2 construct: mCAR and hCAR expression vectors were constructed by cloning an entire mCAR; expressed in transfected cells; host or cells: HepG2
T2 sequence (O35627 1-358): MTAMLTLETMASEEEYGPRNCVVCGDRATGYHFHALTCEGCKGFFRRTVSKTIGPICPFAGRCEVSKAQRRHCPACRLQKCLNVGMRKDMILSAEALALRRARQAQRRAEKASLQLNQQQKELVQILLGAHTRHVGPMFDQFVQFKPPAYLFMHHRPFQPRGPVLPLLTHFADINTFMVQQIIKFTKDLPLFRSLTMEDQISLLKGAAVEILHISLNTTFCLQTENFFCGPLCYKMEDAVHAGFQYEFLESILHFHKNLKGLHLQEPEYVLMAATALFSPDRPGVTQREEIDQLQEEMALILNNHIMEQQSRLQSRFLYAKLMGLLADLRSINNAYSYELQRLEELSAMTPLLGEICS
Excerpt: mCAR and hCAR expression vectors were constructed by cloning an entire mCAR (GenBank Accession No: AF009327, deposited on Jul. 22, 1997; SEQ ID NO: 15) or hCAR (GenBank Accession No: Z30425, deposited on Mar. 8, 1994; SEQ ID NO: 17) coding sequence into BamHI and XhoI sites of pCR3 plasmid as described previously (Sueyoshi et al., J Biol Chem 274:6043-6, 1999). Polymerase chain reaction (PCR) was used to amplify the desired hCAR or mCAR fragment from the plasmid. The amplified fragments used for the chimeras were nucleotides encoding amino acids: 1 to 86 of mCAR and 77 to 348 of hCAR (mhh), 1 to 116 of mCAR and 107 to 348 of hCAR (mmh), 1 to 76 of hCAR and 87 to 358 of mCAR (hmm), 1 to 106 of hCAR and 117 to 358 of mCAR (hhm). These fragments were PCR amplified using pfu polymerase and enzymatically phosphorylated primers. The amplified fragments were ligated, and a second PCR amplification was performed on the ligated DNA with the primers for 5′ and 3′ end of the chimeric DNA. The resulting second PCR products were cloned into a pCR3 vector (Invitrogen) with newly created BamHI and XhoI sites at the 5′ and the 3′ ends, respectively.
A mouse SRC-1 cDNA corresponding to amino acid residues 633 to 1450 of SRC-1 (GenBank Accession No: U64828), was amplified and cloned into the EcoRI and Hind III site of pcDNA3.1/myc-His(−)B plasmid (Invitrogen), thereby generating the SRC-1-expression plasmid pcDNA3.1-SRC-1. Wild-type mCAR or mCART350M was co-transfected with or without the SRC-1-expression plasmid (0.1 μg) into HepG2 cells.
The KN-62 repression was examined with and without the co-expression of SRC-1 (EXAMPLE 3).

mCAR [3] = biological target: T2, mCAR; settings: Kawamoto et al. 2000; cited from earlier work
hCAR = biological target: T3, hCAR (Homo sapiens, UniProt Q14994); settings: Kawamoto et al. 2000; cited from earlier work
T3 construct: expressed in transfected cells; host or cells: HepG2
T3 sequence (Q14994 1-348 isoform Q14994-2): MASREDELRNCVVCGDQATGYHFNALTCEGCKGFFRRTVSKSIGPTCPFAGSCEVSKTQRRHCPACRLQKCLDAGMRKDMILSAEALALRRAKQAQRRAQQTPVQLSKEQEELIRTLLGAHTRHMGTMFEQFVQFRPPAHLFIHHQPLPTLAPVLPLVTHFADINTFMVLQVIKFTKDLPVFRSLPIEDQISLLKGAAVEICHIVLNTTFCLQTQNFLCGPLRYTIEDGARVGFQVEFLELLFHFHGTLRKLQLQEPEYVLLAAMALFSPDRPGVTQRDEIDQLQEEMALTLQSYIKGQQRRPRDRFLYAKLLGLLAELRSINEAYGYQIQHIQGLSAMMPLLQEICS

[4] = system: chimeric receptors hmm and hhm; test: luciferase reporter assay in HepG2 cells, chimeric receptors with mouse LBD; assay type: cell-based, mouse/human; settings: chimeras hmm and hhm
[5] = biological target: wild-type mouse CAR (mCAR; nuclear orphan receptor constitutively active receptor / constitutive androstane receptor) (mouse); test: cell-based or functional assay
[6] = biological target: mCAR T350M mutant (mouse); test: cell-based or functional assay
mCAR L352A = biological target: T4, mCAR L352A (Mus musculus, UniProt O35627, L352A); test: luciferase reporter gene activation assay (PBREM) in HepG2 cells, mCAR L352A mutant; assay type: cell-based; settings: only in the presence of exogenous SRC-1
T4 construct: mCAR and hCAR expression vectors were constructed by cloning an entire mCAR; expressed in transfected cells; host or cells: HepG2
T4 sequence (O35627 1-358 L352A): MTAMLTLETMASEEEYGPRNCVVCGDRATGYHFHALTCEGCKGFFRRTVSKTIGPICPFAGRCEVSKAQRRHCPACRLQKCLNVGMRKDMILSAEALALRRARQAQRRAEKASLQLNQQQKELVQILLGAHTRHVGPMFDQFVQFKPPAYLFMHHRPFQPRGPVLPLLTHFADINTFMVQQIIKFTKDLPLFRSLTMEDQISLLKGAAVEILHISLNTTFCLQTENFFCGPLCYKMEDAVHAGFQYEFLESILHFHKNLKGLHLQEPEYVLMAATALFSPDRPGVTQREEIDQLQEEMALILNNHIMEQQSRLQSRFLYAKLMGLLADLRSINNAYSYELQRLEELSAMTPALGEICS
Excerpt: To examine the role of Leu352 in mCAR activity, site-directed mutagenesis was used as described in EXAMPLES 2 and 6.

[7] = system: PB-responsive enhancer module (PBREM) luciferase reporter; test: constitutive activity of mutated CAR in luciferase reporter gene activation assay in HepG2 cells; settings: mCAR mutants versus mCAR

In the case of CC(=O)[C@H]1CC[C@H]2[C@@H]3CCC4=CC(=O)CC[C@]4(C)[C@H]3CC[C@]12C [progesterone], the “repression of chimeric receptor activity” value [1] is reported as “None of these chimeric receptors was repressed”.

With CN([C@@H](Cc1ccc(OS(=O)(=O)c2cccc3cnccc23)cc1)C(=O)N1CCN(c2ccccc2)CC1)S(=O)(=O)c1cccc2cnccc12 [KN-62] the “repression of receptor activity by KN-62” value (mCART350M; mCART350M, KN-62 0.1-10 μM, with and without SRC-1) was “similarly repressed”, the degree of repression (mCAR [2]; in the absence of SRC-1) was 20-30% and the degree of repression (mCAR [2]; in the presence of co-expressed SRC-1) was 80%. For the same molecule, the “repression of receptor activity by KN-62” value (mCAR [2]; wild-type mCAR, KN-62 0.1-10 μM, with and without SRC-1) was “similarly repressed”, the “repression of constitutive activity of mCAR” value (mCAR [3]) was “represses” and the “repression of constitutive activity of hCAR” value (hCAR) was “not hCAR”. For the same molecule, the “repression of chimera activity” value [4] was 2-4 fold.

Work on “mouse steroid receptor co-activator 1 (SRC-1), amino acid residues 633 to 1450 (from UniProt P70365 633-1447)” yielded a trans-activation activity (NR1-luciferase reporter gene activity in co-transfected HepG2 cells, relative to DMSO-treated cells) [5] of 3 to 4 fold and a trans-activation activity (NR1-luciferase reporter gene activity in co-transfected HepG2 cells, relative to DMSO-treated cells) [6] of 3 to 4 fold.

For C[C@]12CC[C@H]3[C@@H](CCC4=CC(=O)CC[C@@]43C)[C@@H]1CC[C@@H]2O [testosterone], the “repression of mCART350M activity” value (mCART350M; HepG2 cells) was “not the T350M mutant” and the “repression of mCAR activity (luciferase reporter)” value (mCAR [2]; wild-type mCAR, HepG2 cells, 24 hours treatment) was “repressed”.

For CN(C)CCCN1c2ccccc2Sc2ccc(Cl)cc21 [chloropromazine], the “activation of L352A mutant” value (mCAR L352A) was “activated”.

B1: T176V: mCAR with single mutation of Thr176 to valine (protein, UniProt O35627 1-358, looked up, variant T176V)
Nuclear receptor subfamily 1 …: MTAMLTLETMASEEEYGPRNCVVCGDRATGYHFHALTCEGCKGFFRRTVSKTIGPICPFAGRCEVSKAQRRHCPACRLQKCLNVGMRKDMILSAEALALRRARQAQRRAEKASLQLNQQQKELVQILLGAHTRHVGPMFDQFVQFKPPAYLFMHHRPFQPRGPVLPLLTHFADINVFMVQQIIKFTKDLPLFRSLTMEDQISLLKGAAVEILHISLNTTFCLQTENFFCGPLCYKMEDAVHAGFQYEFLESILHFHKNLKGLHLQEPEYVLMAATALFSPDRPGVTQREEIDQLQEEMALILNNHIMEQQSRLQSRFLYAKLMGLLADLRSINNAYSYELQRLEELSAMTPLLGEICS
In the case of B1, the “constitutive activity of mCAR” value [7] is reported as “decreased”.

B2: L352A: mCAR with Ala substitution of Leu352 (protein, UniProt O35627 1-358, looked up, variant L352A)
Nuclear receptor subfamily 1 …: MTAMLTLETMASEEEYGPRNCVVCGDRATGYHFHALTCEGCKGFFRRTVSKTIGPICPFAGRCEVSKAQRRHCPACRLQKCLNVGMRKDMILSAEALALRRARQAQRRAEKASLQLNQQQKELVQILLGAHTRHVGPMFDQFVQFKPPAYLFMHHRPFQPRGPVLPLLTHFADINTFMVQQIIKFTKDLPLFRSLTMEDQISLLKGAAVEILHISLNTTFCLQTENFFCGPLCYKMEDAVHAGFQYEFLESILHFHKNLKGLHLQEPEYVLMAATALFSPDRPGVTQREEIDQLQEEMALILNNHIMEQQSRLQSRFLYAKLMGLLADLRSINNAYSYELQRLEELSAMTPALGEICS
With B2 the “constitutive activity of mCAR” value [7] was “decreased”.

B3: T176L: mCAR with single mutation of Thr176 to leucine (protein, UniProt O35627 1-358, looked up, variant T176L)
Nuclear receptor subfamily 1 …: MTAMLTLETMASEEEYGPRNCVVCGDRATGYHFHALTCEGCKGFFRRTVSKTIGPICPFAGRCEVSKAQRRHCPACRLQKCLNVGMRKDMILSAEALALRRARQAQRRAEKASLQLNQQQKELVQILLGAHTRHVGPMFDQFVQFKPPAYLFMHHRPFQPRGPVLPLLTHFADINLFMVQQIIKFTKDLPLFRSLTMEDQISLLKGAAVEILHISLNTTFCLQTENFFCGPLCYKMEDAVHAGFQYEFLESILHFHKNLKGLHLQEPEYVLMAATALFSPDRPGVTQREEIDQLQEEMALILNNHIMEQQSRLQSRFLYAKLMGLLADLRSINNAYSYELQRLEELSAMTPLLGEICS
For B3, the “constitutive activity of mCAR” value [7] was “decreased”.

B4: SRC-1: co-activator steroid receptor co-activator 1, mouse residues 633 to 1450 expressed from pcDNA3.1-SRC-1 (protein)
chain: TSHKLVQLLTTTAEQQLRHADIDTSCKDVLSCTGTSSSASSNPSGGTCPSSHSSLTERHKILHRLLQEGSPSDITTLSVEPEKKDSVPASTAVSVSGQSQGSASIKLELDAAKKKESKDHQLLRYLLDKDEKDLRSTPNLCLDDVKVKVEKKEQMDPCNTNPTPMTKPAPEEVKLESQSQFTADLDQFDQLLPTLEKAAQLPSLCETDRMDGAVTGVSIKAEVLPASLQPTTARAAPRLSRLPELELEAIDNQFGQPGAGDQIPWANNTLTTINQNKPEDQCISSQLDELLCPPTTVEGRNDEKALLEQLVSFLSGKDETELAELDRALGIDKLVQGGGLDVLSERFPPQQATPPLMMEDRPTLYSQPYSSPSPTAGLSGPFQGMVRQKPSLGAMPVQVTPPRGTFSPNMGMQPRQTLNRPPAAPNQLRLQLQQRLQGQQQLMHQNRQAILNQFAANAPVGMNMRSGMQQQITPQPPLNAQMLAQRQRELYSQQHRQRQIIQQQRAMLMRHQSFGNNIPPSSGLPVQMGTPRLPQGAPQQFPYPPNYGTNPGTPPASTSPFSQLAANPEASLATRSSMVNRGMAGNMGGQFGAGISPQMQQNVFQYPGPGLVPQGEATFAPSLSPGSSMVPMPVPPPQSSLLQQTPPTSGYQSPDMKAWQQGTMGNNNVFSQAVQSQPAPAQPGVYNNMSITVSMAGGNANIQNMNPMMGQMQMSSLQMPGMNTVCSEQMNDPALRHTGLYCNQLSSTDLLKTDADGNQQVQQVQVFADVQCTVNLVGGDPYLNQPGPLGTQKPTSGPQTPQAQQKSLLQQLLTE
With B4 the “increase of trans-activation activity by co-expression” value (mCART350M; mCART350M, relative to DMSO-treated cells) was 3- to 4 fold and the “increase of trans-activation activity by co-expression” value (mCAR [2]; wild-type mCAR, relative to DMSO-treated cells) was 3- to 4 fold.
